From paper PMC10176470, “Engaging a Non-catalytic Cysteine Residue Drives Potent and Selective Inhibition of Caspase-6” (Journal of the American Chemical Society, 2023)
Like-named read-outs stand apart in the source and are kept apart here.

Experiments:
Type in all cases: cell-based
[1] = biological target: proteins of HEK293T cells transiently overexpressing caspase-6 (Homo sapiens, UniProt P17987); details: protein TCP1 (P17987)
[2] = biological target: proteins of HEK293T cells transiently overexpressing caspase-6 (Homo sapiens, UniProt Q15029); details: exp_ref Probe; protein EFTUD2 (Q15029); analysis C6
[3] = biological target: T1, proteins of HEK293T cells transiently overexpressing caspase-6 (Homo sapiens, UniProt P55212); details: for enrich.exp.med: exp_ref Probe
T1 sequence (P55212 24-293): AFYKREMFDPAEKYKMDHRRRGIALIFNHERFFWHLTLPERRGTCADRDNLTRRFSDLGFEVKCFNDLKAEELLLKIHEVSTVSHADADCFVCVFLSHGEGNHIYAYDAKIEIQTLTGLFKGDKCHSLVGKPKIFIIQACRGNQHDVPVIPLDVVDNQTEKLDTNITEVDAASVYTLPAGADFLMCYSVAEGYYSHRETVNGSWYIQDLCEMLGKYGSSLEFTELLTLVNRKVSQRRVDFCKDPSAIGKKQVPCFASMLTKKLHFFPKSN

[4] = biological target: proteins of HEK293T cells transiently overexpressing caspase-6 (Homo sapiens, UniProt P78371); details: exp_ref Probe; protein CCT2 (P78371); analysis C6
[5] = biological target: proteins of HEK293T cells transiently overexpressing caspase-6 (Homo sapiens, UniProt O14980); details: protein XPO1 (O14980); exp_ref Probe; analysis C6
[6] = biological target: proteins of HEK293T cells transiently overexpressing caspase-6 (Homo sapiens, UniProt P36871); details: protein PGM1 (P36871); exp_ref Probe; analysis C6
[7] = biological target: T2, proteins of HEK293T cells transiently overexpressing caspase-6 (Homo sapiens, UniProt Q15942)
T2 sequence (Q15942 1-572): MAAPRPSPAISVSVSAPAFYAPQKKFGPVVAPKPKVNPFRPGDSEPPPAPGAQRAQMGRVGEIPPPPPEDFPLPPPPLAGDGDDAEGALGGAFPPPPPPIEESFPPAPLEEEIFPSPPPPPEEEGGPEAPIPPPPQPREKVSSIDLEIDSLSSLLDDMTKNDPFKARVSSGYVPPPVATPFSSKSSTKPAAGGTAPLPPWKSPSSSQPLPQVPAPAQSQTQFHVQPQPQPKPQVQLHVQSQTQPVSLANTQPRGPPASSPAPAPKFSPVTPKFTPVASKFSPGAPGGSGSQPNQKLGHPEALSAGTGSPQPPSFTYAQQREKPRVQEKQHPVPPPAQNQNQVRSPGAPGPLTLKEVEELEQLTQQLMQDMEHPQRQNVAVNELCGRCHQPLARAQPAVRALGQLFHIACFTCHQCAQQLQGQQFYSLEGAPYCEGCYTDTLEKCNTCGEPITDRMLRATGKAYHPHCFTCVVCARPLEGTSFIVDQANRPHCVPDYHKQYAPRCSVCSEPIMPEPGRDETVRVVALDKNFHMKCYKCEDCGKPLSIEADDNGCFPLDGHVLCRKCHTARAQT

[8] = biological target: proteins of HEK293T cells transiently overexpressing caspase-6 (Homo sapiens, UniProt Q9Y224); details: Probe; protein C14orf166 Q9Y224
[9] = biological target: proteins of HEK293T cells transiently overexpressing caspase-6 (Homo sapiens, UniProt P24752); details: Probe; protein ACAT1 P24752
[10] = biological target: proteins of HEK293T cells transiently overexpressing caspase-6 (Homo sapiens, UniProt Q7KZF4); details: exp_ref Probe; protein SND1 (Q7KZF4); analysis C6
[11] = biological target: proteins of HEK293T cells transiently overexpressing caspase-6 (Homo sapiens, UniProt P54886); details: exp_ref Probe; protein ALDH18A1 (P54886); analysis C6
[12] = biological target: proteins of HEK293T cells transiently overexpressing caspase-6 (Homo sapiens, UniProt P14618); details: protein PKM (P14618)
[13] = biological target: proteins of HEK293T cells transiently overexpressing caspase-6 (Homo sapiens, UniProt P62241); details: exp_ref Probe; protein RPS8 (P62241); analysis C6
[14] = biological target: proteins of HEK293T cells transiently overexpressing caspase-6 (Homo sapiens, UniProt P02768); details: Probe; protein ALB P02768
[15] = protein CASP6SMALL (P55212), Expt Probe, analysis C6

Sequence of proteins of HEK293T cells transiently overexpressing caspase-6 (Homo sapiens, UniProt P14618) (P14618 whole entry): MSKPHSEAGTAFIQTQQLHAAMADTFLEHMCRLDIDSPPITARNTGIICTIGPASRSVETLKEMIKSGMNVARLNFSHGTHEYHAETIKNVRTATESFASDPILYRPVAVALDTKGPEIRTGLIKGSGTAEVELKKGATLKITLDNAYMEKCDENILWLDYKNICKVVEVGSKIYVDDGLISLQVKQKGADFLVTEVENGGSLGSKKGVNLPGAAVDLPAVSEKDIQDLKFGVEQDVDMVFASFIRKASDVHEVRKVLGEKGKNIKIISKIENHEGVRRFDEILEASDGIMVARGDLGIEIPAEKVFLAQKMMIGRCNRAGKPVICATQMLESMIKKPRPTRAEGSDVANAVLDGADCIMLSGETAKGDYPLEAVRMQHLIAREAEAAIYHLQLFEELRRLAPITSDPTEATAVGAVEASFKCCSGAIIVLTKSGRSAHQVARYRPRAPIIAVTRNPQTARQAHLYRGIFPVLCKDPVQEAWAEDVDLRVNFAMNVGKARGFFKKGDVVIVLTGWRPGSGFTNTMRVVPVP
Sequence of proteins of HEK293T cells transiently overexpressing caspase-6 (Homo sapiens, UniProt P17987) (P17987 whole entry): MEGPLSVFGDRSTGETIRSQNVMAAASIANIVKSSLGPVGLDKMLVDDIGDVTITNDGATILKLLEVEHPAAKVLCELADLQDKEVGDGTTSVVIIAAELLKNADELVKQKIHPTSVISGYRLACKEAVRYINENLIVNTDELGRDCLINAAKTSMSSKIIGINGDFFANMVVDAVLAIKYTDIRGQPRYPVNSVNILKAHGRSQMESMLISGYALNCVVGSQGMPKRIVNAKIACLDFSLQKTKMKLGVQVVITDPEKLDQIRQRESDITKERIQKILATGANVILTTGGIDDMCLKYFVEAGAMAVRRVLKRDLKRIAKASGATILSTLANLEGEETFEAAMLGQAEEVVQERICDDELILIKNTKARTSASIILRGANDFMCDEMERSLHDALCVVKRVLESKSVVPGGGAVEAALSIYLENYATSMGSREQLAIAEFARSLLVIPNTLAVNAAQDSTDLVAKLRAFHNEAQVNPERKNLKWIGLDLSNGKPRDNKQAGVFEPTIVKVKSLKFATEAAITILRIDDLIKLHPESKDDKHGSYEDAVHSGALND
Sequence of proteins of HEK293T cells transiently overexpressing caspase-6 (Homo sapiens, UniProt Q15029) (Q15029 whole entry): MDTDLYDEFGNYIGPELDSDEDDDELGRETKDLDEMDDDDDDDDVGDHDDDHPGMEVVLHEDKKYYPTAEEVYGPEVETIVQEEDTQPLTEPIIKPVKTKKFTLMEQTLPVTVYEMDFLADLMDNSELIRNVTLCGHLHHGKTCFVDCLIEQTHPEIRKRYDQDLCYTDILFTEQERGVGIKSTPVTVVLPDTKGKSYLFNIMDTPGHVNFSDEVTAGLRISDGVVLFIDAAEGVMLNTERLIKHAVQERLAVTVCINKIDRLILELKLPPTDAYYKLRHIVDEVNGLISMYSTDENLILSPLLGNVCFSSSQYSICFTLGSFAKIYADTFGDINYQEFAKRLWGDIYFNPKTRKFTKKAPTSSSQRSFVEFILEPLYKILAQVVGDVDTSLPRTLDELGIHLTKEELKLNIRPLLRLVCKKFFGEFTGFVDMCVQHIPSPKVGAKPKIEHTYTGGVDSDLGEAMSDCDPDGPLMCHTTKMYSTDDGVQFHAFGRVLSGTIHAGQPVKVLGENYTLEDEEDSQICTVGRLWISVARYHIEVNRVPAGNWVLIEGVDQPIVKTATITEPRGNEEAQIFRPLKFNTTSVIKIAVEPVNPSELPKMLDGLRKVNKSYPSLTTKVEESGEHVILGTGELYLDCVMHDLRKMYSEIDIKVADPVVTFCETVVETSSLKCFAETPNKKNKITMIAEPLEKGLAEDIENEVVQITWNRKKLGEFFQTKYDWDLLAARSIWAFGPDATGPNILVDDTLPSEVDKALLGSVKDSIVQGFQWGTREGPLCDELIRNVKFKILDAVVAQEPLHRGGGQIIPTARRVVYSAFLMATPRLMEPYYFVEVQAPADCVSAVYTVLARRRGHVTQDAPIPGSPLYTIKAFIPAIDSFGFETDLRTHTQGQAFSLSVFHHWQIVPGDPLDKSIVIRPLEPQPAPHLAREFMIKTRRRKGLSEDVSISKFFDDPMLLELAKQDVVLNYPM
Sequence of proteins of HEK293T cells transiently overexpressing caspase-6 (Homo sapiens, UniProt O14980) (O14980 whole entry): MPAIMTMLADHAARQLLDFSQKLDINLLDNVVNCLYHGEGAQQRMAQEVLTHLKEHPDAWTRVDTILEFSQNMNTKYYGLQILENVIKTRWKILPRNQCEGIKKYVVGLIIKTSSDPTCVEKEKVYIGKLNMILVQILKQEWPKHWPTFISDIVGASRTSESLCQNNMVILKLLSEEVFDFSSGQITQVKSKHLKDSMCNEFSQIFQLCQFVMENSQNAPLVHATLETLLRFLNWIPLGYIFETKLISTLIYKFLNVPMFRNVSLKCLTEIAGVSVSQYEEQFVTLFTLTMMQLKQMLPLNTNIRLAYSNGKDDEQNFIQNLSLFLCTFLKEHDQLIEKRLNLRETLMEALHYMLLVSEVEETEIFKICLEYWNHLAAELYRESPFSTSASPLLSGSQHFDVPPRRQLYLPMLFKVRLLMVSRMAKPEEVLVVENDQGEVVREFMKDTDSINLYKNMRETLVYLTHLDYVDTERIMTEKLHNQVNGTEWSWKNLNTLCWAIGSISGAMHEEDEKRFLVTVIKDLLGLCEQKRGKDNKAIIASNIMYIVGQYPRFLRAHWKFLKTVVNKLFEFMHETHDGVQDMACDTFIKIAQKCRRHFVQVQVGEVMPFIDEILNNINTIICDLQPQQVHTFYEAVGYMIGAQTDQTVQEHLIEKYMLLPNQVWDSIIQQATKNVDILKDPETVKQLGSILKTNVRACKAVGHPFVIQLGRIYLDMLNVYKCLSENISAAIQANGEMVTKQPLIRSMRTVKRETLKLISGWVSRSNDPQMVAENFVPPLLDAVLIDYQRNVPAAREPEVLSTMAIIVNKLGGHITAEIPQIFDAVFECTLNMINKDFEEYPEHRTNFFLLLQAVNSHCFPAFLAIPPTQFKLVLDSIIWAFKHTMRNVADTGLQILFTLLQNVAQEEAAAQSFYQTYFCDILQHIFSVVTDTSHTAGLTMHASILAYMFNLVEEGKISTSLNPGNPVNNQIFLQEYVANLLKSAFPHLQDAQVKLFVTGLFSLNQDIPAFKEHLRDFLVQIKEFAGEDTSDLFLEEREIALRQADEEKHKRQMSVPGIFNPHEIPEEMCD
Sequence of proteins of HEK293T cells transiently overexpressing caspase-6 (Homo sapiens, UniProt Q7KZF4) (Q7KZF4 whole entry): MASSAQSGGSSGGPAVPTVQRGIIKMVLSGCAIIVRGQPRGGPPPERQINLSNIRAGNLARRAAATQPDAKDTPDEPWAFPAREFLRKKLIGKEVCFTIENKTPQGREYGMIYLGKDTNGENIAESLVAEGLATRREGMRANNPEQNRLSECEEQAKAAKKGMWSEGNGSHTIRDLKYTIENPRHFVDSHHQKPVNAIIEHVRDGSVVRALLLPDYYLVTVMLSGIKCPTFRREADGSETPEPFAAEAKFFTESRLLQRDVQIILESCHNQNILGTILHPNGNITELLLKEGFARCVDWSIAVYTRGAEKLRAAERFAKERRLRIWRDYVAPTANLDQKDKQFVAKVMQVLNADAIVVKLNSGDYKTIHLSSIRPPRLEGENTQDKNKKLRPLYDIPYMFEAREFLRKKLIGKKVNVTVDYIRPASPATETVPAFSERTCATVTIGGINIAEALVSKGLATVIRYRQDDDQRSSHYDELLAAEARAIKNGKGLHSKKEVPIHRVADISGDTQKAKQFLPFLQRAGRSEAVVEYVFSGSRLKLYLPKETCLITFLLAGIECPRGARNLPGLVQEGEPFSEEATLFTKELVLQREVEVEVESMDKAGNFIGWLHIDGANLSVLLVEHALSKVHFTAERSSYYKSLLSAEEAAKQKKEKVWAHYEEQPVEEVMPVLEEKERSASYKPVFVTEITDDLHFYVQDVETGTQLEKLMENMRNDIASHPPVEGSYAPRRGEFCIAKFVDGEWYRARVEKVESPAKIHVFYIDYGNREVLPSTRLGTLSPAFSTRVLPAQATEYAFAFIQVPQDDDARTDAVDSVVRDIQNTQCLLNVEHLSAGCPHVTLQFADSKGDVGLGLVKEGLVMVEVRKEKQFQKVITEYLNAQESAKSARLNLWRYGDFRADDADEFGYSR
Sequence of proteins of HEK293T cells transiently overexpressing caspase-6 (Homo sapiens, UniProt P54886) (P54886 whole entry): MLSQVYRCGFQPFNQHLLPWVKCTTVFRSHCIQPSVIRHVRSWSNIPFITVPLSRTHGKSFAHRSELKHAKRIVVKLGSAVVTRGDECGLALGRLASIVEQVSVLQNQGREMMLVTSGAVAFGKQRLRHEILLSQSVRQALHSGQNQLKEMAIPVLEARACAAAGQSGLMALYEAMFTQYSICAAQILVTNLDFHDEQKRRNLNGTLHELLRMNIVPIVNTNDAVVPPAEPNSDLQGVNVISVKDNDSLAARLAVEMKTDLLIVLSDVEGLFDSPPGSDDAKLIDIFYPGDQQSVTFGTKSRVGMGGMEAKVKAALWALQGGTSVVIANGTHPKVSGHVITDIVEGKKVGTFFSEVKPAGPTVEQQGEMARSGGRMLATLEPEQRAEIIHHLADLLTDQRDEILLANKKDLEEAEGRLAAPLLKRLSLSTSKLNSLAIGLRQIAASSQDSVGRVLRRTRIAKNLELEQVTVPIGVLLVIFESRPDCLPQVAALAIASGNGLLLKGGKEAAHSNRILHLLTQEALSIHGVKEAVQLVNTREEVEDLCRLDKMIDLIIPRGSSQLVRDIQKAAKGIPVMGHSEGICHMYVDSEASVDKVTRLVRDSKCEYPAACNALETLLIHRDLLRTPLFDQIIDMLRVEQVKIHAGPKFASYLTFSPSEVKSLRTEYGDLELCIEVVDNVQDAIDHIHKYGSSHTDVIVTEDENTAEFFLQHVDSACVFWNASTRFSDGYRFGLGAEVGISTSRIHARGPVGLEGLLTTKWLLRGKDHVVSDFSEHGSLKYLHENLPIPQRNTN

Molecule `C#CCOc1ccc([C@@H]2C[C@@H](C(=O)Nc3ccc(OC(F)(F)F)cc3)CN(S(=O)(=O)C=C)C2)cc1` (relative stereo) [13-t] has an enrich.exp.med ([1]; exp_ref Probe, analysis C6) of 0.8619, an enrich.exp.med.lin [1] of 1.8174 and an enrich.exp.med.log2 [1] of 0.8619. For the same molecule, the enrich.exp.med [2] was 0.4056, the enrich.exp.med ([3]; protein CASP6LARGE (P55212), analysis C6) was 0.6468 and the enrich.exp.med.lin ([3]; protein CASP6LARGE (P55212)) was 1.566. For the same molecule, the enrich.exp.med.log2 ([3]; protein CASP6LARGE (P55212)) was 0.6468, the enrich.exp.med.lin ([3]; protein CASP6SMALL (P55212)) was 9.435 and the enrich.exp.med.log2 ([3]; protein CASP6SMALL (P55212)) was 3.238. For the same molecule, the enrich.exp.med.lin [3, 15] was 9.435, the enrich.exp.med.log2 [3, 15] was 3.238 and the enrich.exp.med ([3]; protein CASP6SMALL (P55212), analysis C6) was 3.238. The enrich.exp.med [4] was 0.6812, the enrich.exp.med [5] was 1.753 and the enrich.exp.med [6] was 1.9053. The enrich.exp.med ([7]; Probe, protein ZYX Q15942) was -1.696, the enrich.exp.med.lin ([7]; protein ZYX (Q15942)) was 0.3087 and the enrich.exp.med.log2 ([7]; protein ZYX (Q15942)) was -1.696. For the same molecule, the enrich.exp.med [8] was -1.579, the enrich.exp.med [9] was -1.066 and the enrich.exp.med [10] was 0.1516. The enrich.exp.med [11] was 0.3406, the enrich.exp.med ([12]; exp_ref Probe, analysis C6) was 0.4939 and the enrich.exp.med.lin [12] was 1.408. The enrich.exp.med.log2 [12] was 0.4939, the enrich.exp.med [13] was 0.3889 and the enrich.exp.med [14] was -8.362.
